Data reported in US11827628B2, “Compositions and methods for inhibition of the JAK pathway” (Rigel Pharmaceuticals, Inc., priority 2005, dated 2023).

What follows are molecules tested on IL-4 stimulated expression of CD23 in human Ramos B cells (JAK-1 and JAK-3) (assay: Assay for Ramos B-Cell Line Stimulated with IL-4 (CD23 upregulation, FACS)). Details: Homo sapiens, Ramos, Ramos B cells stimulated with IL-4, CD23 expression by FACS; read-out: IC50, Example 41.
Assay type: cell-based
How it was run: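 Compound effect on IL-4-driven JAK1/JAK3 signalling is gauged as CD23 surface expression, measured by FACS after 20-24 h of stimulation with IL-4 at 50 units/mL final. A 1 h compound pre-treatment at 37 °C precedes stimulation, and IC50 is derived from the results.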

IC50 [nM] | Molecule
4560 | Cc1cc(O)nc2ccc(Nc3nc(Nc4cccc(S(N)(=O)=O)c4)ncc3F)cc12 [VII-74, N2-(3-Aminosulfonylphenyl)-5-fluoro-N4-(2-hydroxy-4-methylquinolin-6-yl)-2,4-pyrimidinediamine]
120 | C#CCn1ccc2ccc(Nc3nc(Nc4cccc(S(N)(=O)=O)c4)ncc3F)cc21 [IX-4, N2-(3-Aminosulfonylphenyl)-5-fluoro-N4-[1-(propyn-3-yl)indol-6-yl]-2,4-pyrimidinediamine]
1840 | CCN(CC)S(=O)(=O)c1ccc(OC)c(Nc2nc(Nc3ccc4c(c3)NC(=O)C(C)(C)O4)cc(C(=O)OC)n2)c1 [Compound X-2]
205 | CNS(=O)(=O)c1ccc(Nc2ncc(F)c(Nc3cccc(O)c3)n2)cc1OC [VI-1, 5-Fluoro-N4-(3-hydroxyphenyl)-N2-[4-(N-methyl)aminosulfonyl-3-methoxyphenyl]-2,4-pyrimidinediamine]
360 | C#CCNS(=O)(=O)c1cccc(Nc2nc(Nc3ccc(S(N)(=O)=O)cc3)ncc2F)c1 [VI-80, N2-(4-Aminosulfonylphenyl)-5-fluoro-N4-[3-(prop-2-ynylaminosulfonyl)phenyl]-2,4-pyrimidinediamine]
919 | NS(=O)(=O)c1cccc(Nc2ncc(F)c(Nc3ccc(O)cc3)n2)c1 [VI-101, N2-(3-Aminosulfonylphenyl)-5-fluoro-N4-(4-hydroxyphenyl)-2,4-pyrimidinediamine]
890 | NS(=O)(=O)c1cc(Nc2ncc(F)c(Nc3ccc(Cl)c(S(N)(=O)=O)c3)n2)ccc1Cl [VI-115, N2,N4-Bis-(3-aminosulfonyl-4-chlorophenyl)-5-fluoro-2,4-pyrimidinediamine]
240 | CNS(=O)(=O)c1ccc(Nc2ncc(F)c(Nc3cc(OC)cc(OC)c3)n2)cc1OC [IX-51, N4-(3,5-Dimethoxyphenyl)-5-fluoro-N2-[4-(N-methyl)aminosulfonyl-3-methoxyphenyl]-2,4-pyrimidinediamine]
726 | COc1ccc(N(C)c2nc(Nc3cc(C)c(F)c(S(N)(=O)=O)c3)ncc2F)cc1Cl [VI-20, N2-(3-Aminosulfonyl-4-fluoro-5-methylphenyl)-N4-(3-chloro-4-methoxyphenyl)-5-fluoro-N4-methyl-2,4-pyrimidinediamine]
700 | NS(=O)(=O)c1cccc(Nc2ncc(F)c(Nc3cccc(S(N)(=O)=O)c3)n2)c1 [VI-113, N2,N4-Bis-(3-aminosulfonylphenyl)-5-fluoro-2,4-pyrimidinediamine]

Same assay, conditions: Homo sapiens, Ramos, Ramos B-cell line stimulated with IL-4; CD23 expression by FACS; read-out: IC50, Example 41

IC50 [nM] | Molecule
295 | N#CCCc1ccc(Nc2nc(Nc3ccc(Cl)c(S(N)(=O)=O)c3)ncc2F)cc1 [III-13, N2-(3-Aminosulfonyl-4-chlorophenyl)-N4-[4-(2-cyanoethyl)phenyl]-5-fluoro-2,4-pyrimidinediamine]
866 | NS(=O)(=O)c1ccc(Nc2ncc(F)c(Nc3ccc(OCC(=O)N4CCOCC4)cc3)n2)cc1 [Compound I-210, N2-(4-Aminosulfonylphenyl)-5-fluoro-N4-[4-(2-morpholin-4-yl-2-oxo-ethoxy)phenyl]-2,4-pyrimidinediamine]
1250 | COc1cc(Nc2nc(Nc3ccc(S(N)(=O)=O)cc3)ncc2F)ccc1OCC(N)=O [Compound I-103, N4-(4-Aminocarbonylmethoxy-3-methoxyphenyl)-N2-(4-aminosulfonylphenyl)-5-fluoro-2,4-pyrimidinediamine]
24.1 | N#CCOc1ccc(Nc2nc(Nc3cccc(S(N)(=O)=O)c3)ncc2F)cc1Cl [Compound I-42, N2-(3-Aminosulfonylphenyl)-N4-(3-chloro-4-cyanomethoxyphenyl)-5-fluoro-2,4-pyrimidinediamine]

Same assay, conditions: Ramos B cells stimulated with IL-4, CD23 expression by FACS; read-out: IC50, Example 41

IC50 [nM] | Molecule
523 | N4-(4-Acetylthiomethylcarbonylphenyl)-N2-(3-aminosulfonyl-4-methylphenyl)-5-fluoro-2,4-pyrimidinediamine [IX-43]
521 | CNS(=O)(=O)c1cc(Nc2ncc(F)c(Nc3ccc(C(=O)N4CCSCC4)cc3)n2)ccc1C [IX-33, 5-Fluoro-N2-[3-(N-methylaminosulfony)-4-methylphenyl]-5-fluoro-N4-[4-(4-thiomorpholino)carbonylphenyl]-2,4-pyrimidinediamine]
754 | COc1ccc(Nc2nc(Nc3cccc(S(N)(=O)=O)c3)ncc2C#C[Si](C)(C)C)cc1Cl [VI-28, N2-(3-Aminosulfonylphenyl)-N4-(3-chloro-4-methoxyphenyl)-5-trimethylsilylacetylene-2,4-pyrimidinediamine]
1280 | COc1ccc(Nc2ncc(F)c(Nc3ccc(CN4CCOCC4)cc3)n2)cc1S(N)(=O)=O [III-105, N2-(3-Aminosulfonyl-4-methyleneoxyphenyl)-5-fluoro-N4-(4-N-morpholinomethylenephenyl)-2,4-pyrimidinediamine]
9580 | CC(=O)N1CCN(C(=O)c2ccc(Nc3nc(Nc4cccc(S(N)(=O)=O)c4)ncc3F)cc2)CC1 [IX-23, N4-[4-(1-Acetyl-4-piperizinyl)carbonylphenyl]-N2-(3-Aminosulfonylphenyl)-5-fluoro-2,4-pyrimidinediamine]

Molecule | IC50 [nM]
Cc1ccc(Nc2ncc(F)c(Nc3ccc4nc(N(C)C)ccc4c3)n2)cc1S(N)(=O)=O [VII-75, N2-(3-Aminosulfonyl-4-methylphenyl)-N4-(2-N,N′-dimethylamine-quinolin-6-yl)-5-fluoro-2,4-pyrimidinediamine] | 544

Same assay, conditions: Ramos B-cell line stimulated with IL-4; CD23 expression by FACS; read-out: IC50, Example 41

IC50 [nM] | Molecule
395 | N2-(3-Aminocarbonyl-5-methylphenyl)-5-fluoro-N2-[4-(1-methylpyrazol-3-yl)amidophenyl)-2,4-pyrimidinediamine [II-19]
917 | CNS(=O)(=O)c1ccc(Nc2ncc(F)c(Nc3ccc(OC(F)(F)F)c(Cl)c3)n2)cc1OC [Compound I-269, 5-fluoro-N2-(4-N-methylaminosulfonyl)-3-methoxyphenyl-N4-(4-trifluoromethoxy-3-chlorophenyl)-2,4-pyrimidinediamine]
3760 | Cc1cc(COc2ccc(Nc3nc(Nc4ccc(C)c(S(=O)(=O)NC(=O)C(C)C)c4)ncc3F)cc2)no1 [Compound I-229, 5-Fluoro-N4-[4-(5-methylisoxazol-3-yl)methyleneoxyphenyl]-N2-(4-methyl-3-(2-methylpropionyl)aminosulfonylphenyl)-2,4-pyrimidinediamine]
1430 | CC(=O)NS(=O)(=O)c1cccc(Nc2ncc(F)c(Nc3ccc(OCc4cc(C)on4)cc3)n2)c1 [Compound I-232, N2-(3-Acetamidosulfonylphenyl)-5-fluoro-N4-[4-(5-methylisoxazol-3-yl)methyleneoxyphenyl]-2,4-pyrimidinediamine]

What follows are molecules tested on Primary human T-cells (assay: Primary Human T-Cell Proliferation Assay Stimulated with IL-2 (CellTiter-Glo)). Details: Homo sapiens, T-cell, primary human T-cell proliferation stimulated with IL-2; read-out: IC50, Example 42.
Assay type: cell-based
From the text: The activity of the active compounds of the invention may further be characterized by assaying the effect of the 2,4-substituted pyrimidinediamine compounds described herein on the proliferative response of primary human T-cells. In this assay, primary human T-cells derived from peripheral blood and pre-activated through stimulation of the T-cell receptor and CD28, proliferate in culture in response to the cytokine Interleukin-2 (IL-2). This proliferative response is dependent on the activation of JAK1 and JAK3 tyrosine kinases, which phosphorylate and activate the transcription factor Stat-5. The primary human T-cells are incubated with the 2,4-substituted pyrimidinediamine compounds in the presence of IL-2 for 72 hours and at the assay endpoint intracellular ATP concentrations are measured to assess cell viability. A reduction in cell proliferation compared to control conditions is indicative of inhibition of the JAK kinase pathway. An exemplary assay of this type is described in greater detail in Example 42
Primary human T-cells derived from peripheral blood and pre-activated through stimulation of the T-cell receptor and CD28, proliferate in vitro in response to the cytokine Interleukin-2 (IL-2). This proliferative response is dependent on the activation of JAK-1 and JAK-3 tyrosine kinases, which phosphorylate and activate the transcription factor Stat-5.
Human primary T cells were prepared as follows. Whole blood was obtained from a healthy volunteer, mixed 1:1 with PBS, layered on to Ficoll Hypaque (Amersham Pharmacia Biotech, Piscataway, NJ, Catalog #17-1440-03) in 2:1 blood/PBS:ficoll ratio and centrifuged for 30 min at 4° C. at 1750 rpm. The lymphocytes at the serum: ficoll interface were recovered and washed twice with 5 volumes of PBS. The cells were resuspended in Yssel's medium (Gemini Bio-products, Woodland, CA, Catalog #400-103) containing 40 U/mL recombinant IL2 (R and D Systems, Minneapolis, MN, Catalog #202-IL (20 rig)) and seeded into a flask pre-coated with 1 μg/mL anti-CD3 (BD Pharmingen, San Diego, CA, Catalog #555336) and 5 μg/mL anti-CD28 (Immunotech, Beckman Coulter of Brea CA, Catalog #IM1376). The primary T-cells were stimulated for 3-4 days, then transferred to a fresh flask and maintained in RPMI with 10% FBS and 40 U/mL IL-2.
Primary T-cells were washed twice with PBS to remove the IL-2 and resuspended in Yssel's medium at 2×10^6 cells/mL. 50 μL of cell suspension containing 80 U/mL IL-2 was added to each well of a flat bottom 96 well black plate. For the unstimulated control, IL-2 was omitted from the last column on the plate. Compounds were serially diluted in dimethyl sulfoxide (DMSO, 99.7% pure, cell culture tested, Sigma-Aldrich, St. Louis, MO, Catalog No. D2650) from 5 mM in 3-fold dilutions, and then diluted 1:250 in Yssel's medium. 50 μL of 2× compound was added per well in duplicate and the cells were allowed to proliferate for 72 hours at 37° C.
Proliferation was measured using CellTiter-Glo® Luminescent Cell Viability Assay (Promega), which determines the number of viable cells in culture based on quantitation of the ATP present, as an indicator of metabolically active cells. The substrate was thawed and allowed to come to room temperature. After mixing the Cell Titer-Glo reagent and diluent together, 100 μL was added to each well. The plates were mixed on an orbital shaker for two minutes to induce lysis and incubated at room temperature for an additional ten minutes to allow the signal to equilibrate. Detection was performed using a Wallac Victor2 1420 multilabel counter purchased from Perkin Elmer, Shelton, CT The IC50 calculated based on the results of this assay are provided in TABLE XII.

Molecule | IC50 [nM]
N#CCCc1ccc(Nc2nc(Nc3ccc(Cl)c(S(N)(=O)=O)c3)ncc2F)cc1 [III-13, N2-(3-Aminosulfonyl-4-chlorophenyl)-N4-[4-(2-cyanoethyl)phenyl]-5-fluoro-2,4-pyrimidinediamine] | 701

Same assay, conditions: Homo sapiens, T-cell, primary human T-cells stimulated with IL-2, proliferation; read-out: IC50, Example 42

Molecule | IC50 [nM]
C#CCNS(=O)(=O)c1ccc(Nc2nc(Nc3ccc(S(N)(=O)=O)cc3)ncc2F)cc1 [VI-77, N2-(4-Aminosulfonylphenyl)-5-fluoro-N4-[4-(prop-2-ynylaminosulfonyl)phenyl]-2,4-pyrimidinediamine] | 43300

Same assay, conditions: primary human T-cell proliferation stimulated with IL-2; read-out: IC50, Example 42

Molecule | IC50 [nM]
NS(=O)(=O)c1ccc(Nc2ncc(F)c(Nc3ccc(-c4ccccn4)c(OCF)c3)n2)cc1 [Compound I-177, N2-(4-Aminosulfonylphenyl)-5-fluoro-N4-[4-(2-pyridinyl)-3-fluoromethyleneoxyphenyl]-2,4-pyrimidinediamine] | 500

Same assay, conditions: primary human T-cells stimulated with IL-2, proliferation; read-out: IC50, Example 42

Molecule | IC50 [nM]
N4-(4-Acetylthiomethylcarbonylphenyl)-N2-(3-aminosulfonyl-4-methylphenyl)-5-fluoro-2,4-pyrimidinediamine [IX-43] | 2800
